Experimental data from patent US12461078B2, “Compounds for use in system suitability testing of inert LC systems and columns” (priority 2020, dated 2025).

Tests used:
[1] = cited from earlier work
[2] = Hydrolytic and storage stability of nucleotide analog; type: physicochemical

Compound | Log P [1] | resistance to hydrolysis / storage stability [2]
Nc1ncnc2c1ncn2[C@@H]1O[C@H](COP(=O)(O)CP(=O)(O)O)[C@@H](O)[C@H]1O [AMPcP, Adenosine 5′-(α, β-methylene)diphosphate] | −4.8 | resistant to hydrolysis and be stable for long-term storage and repeat use
Nc1ncnc2c1ncn2[C@@H]1O[C@H](COP(=O)(O)OP(=O)(O)OP(=O)(O)O)[C@@H](O)[C@H]1O [ATP, adenosine-5′-triphosphate] | −5.5 | 
